The assay addresses BTK wild type (Homo sapiens (Human), UniProt Q06187). The experiment in a line: Inhibition assay of BTK kinase activity (HTRF). The assay is classed as biochemical. As for the experimental part: Inhibition Assay of BTK Kinase Activity:
The enzyme reaction mixture of BTK wild type standard HTRF assay contained 1 nM BTK wild type, 1 μM biotin-TK1 peptide, and 30 μM ATP in a buffer. The enzyme reaction were carried out at room temperature for 60 minutes. […] The plates were incubated at room temperature for 60 minutes and then read in the Envision plate reader.

Setting [1] is: all compounds with IC50 of less 10 nM, read-out: IC50 (BTK).

In general, pIC50 refers to the negative decadic logarithm of the IC50, by convention in mol/L.

pIC50: −log10 of the molar value. Read-outs that look alike come from different tables or passages of the source. Bounds are passed on as bounds.

Chain of BTK wild type (Q06187 whole entry): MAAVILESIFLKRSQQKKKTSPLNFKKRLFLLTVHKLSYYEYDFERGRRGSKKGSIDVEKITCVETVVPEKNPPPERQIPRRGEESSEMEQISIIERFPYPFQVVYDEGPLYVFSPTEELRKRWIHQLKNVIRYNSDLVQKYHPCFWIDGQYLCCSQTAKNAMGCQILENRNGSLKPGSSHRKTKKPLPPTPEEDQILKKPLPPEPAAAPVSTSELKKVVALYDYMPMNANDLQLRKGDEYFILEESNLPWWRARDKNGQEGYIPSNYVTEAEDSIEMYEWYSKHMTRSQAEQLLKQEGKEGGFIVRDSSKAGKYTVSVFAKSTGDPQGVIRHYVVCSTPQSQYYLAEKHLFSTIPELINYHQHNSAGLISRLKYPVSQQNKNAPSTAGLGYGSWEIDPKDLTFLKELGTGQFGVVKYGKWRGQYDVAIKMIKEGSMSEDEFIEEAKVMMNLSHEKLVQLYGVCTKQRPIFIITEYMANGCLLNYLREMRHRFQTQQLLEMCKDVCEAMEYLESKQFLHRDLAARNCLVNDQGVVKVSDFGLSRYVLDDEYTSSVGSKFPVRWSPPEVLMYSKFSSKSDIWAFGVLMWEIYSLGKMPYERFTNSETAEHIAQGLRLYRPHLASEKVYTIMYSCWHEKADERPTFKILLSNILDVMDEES

Turning to `C=CC(=O)N1CCC(n2nc3c4c(ncnc42)Nc2cc(Oc4c(F)c(F)cc(F)c4F)ccc2-3)C1` (stereo not shown) [Compound 24], the negative-log IC50 (pIC50) (read-out: BTK IC50) was 5.99.

With `C=C(C)C(=O)N1CC[C@@H](n2nc(-c3ccc(Oc4c(F)c(F)cc(F)c4F)cc3F)c3c(N)ncnc32)C1` [Compound 105, 1-((R)-3-(4-amino-3-(2-fluoro-4-(2,3,5,6-tetrafluorophenoxy)phenyl)-1H-pyrazolo[3,4-d]pyrimidin-1-yl)pyrrolidin-1-yl)-2-methylprop-2-en-1-one], under “read-out: BTK IC50”, the negative logarithm of the IC50 (pIC50) is 6.23. For the molecule `Nc1ncnc2c1c(-c1ccc(Oc3c(F)c(F)cc(F)c3F)cc1F)nn2CCCN1C(=O)C=CC1=O` [Compound 38, 1-(3-(4-amino-3-(2-fluoro-4-(2,3,5,6-tetrafluorophenoxy)phenyl)-1H-pyrazolo[3,4-d]pyrimidin-1-yl)propyl)-1H-pyrrole-2,5-dione], the negative-log IC50 (pIC50) (read-out: BTK IC50) was 6.42. Same read-out and setting: for `Nc1ncnc2c1c(-c1ccc(Oc3c(F)c(F)cc(F)c3F)cc1F)nn2C1CCCC(N2C(=O)C=CC2=O)C1` (stereo not shown) [Compound 36, 1-(3-(4-amino-3-(2-fluoro-4-(2,3,5,6-tetrafluorophenoxy)phenyl)-1H-pyrazolo[3,4-d]pyrimidin-1-yl)cyclohexyl)-1H-pyrrole-2,5-dione] the value was 6.23. As for `C=CC(=O)N1CCCC(n2nc(-c3ccc(Oc4cccc(F)c4[N+](=O)[O-])cc3F)c3c(N)ncnc32)C1` (stereo not shown) [Compound 12, 1-(3-(4-amino-3-(2-fluoro-4-(3-fluoro-2-nitrophenoxy)phenyl)-1H-pyrazolo[3,4-d]pyrimidin-1-yl)piperidin-1-yl)prop-2-en-1-one], the pIC50 under setting [1] is over 8.00 and the pIC50 (read-out: BTK IC50) is 8.70. As to `C=CC(=O)NC1CCC(Cn2nc(-c3ccc(Oc4c(F)c(F)cc(F)c4F)cc3F)c3c(N)ncnc32)C1` (stereo not shown) [Compound 32, N-(3-((4-amino-3-(2-fluoro-4-(2,3,5,6-tetrafluorophenoxy)phenyl)-1H-pyrazolo[3,4-d]pyrimidin-1-yl)methyl)cyclopentyl)acrylamide], the pIC50 (read-out: BTK IC50) is 5.14.

On to `C=CC(=O)N(C)CCn1nc(-c2ccc(Oc3c(F)c(F)cc(F)c3F)cc2F)c2c(N)ncnc21` [Compound 85, N-(2-(4-amino-3-(2-fluoro-4-(2,3,5,6-tetrafluorophenoxy)phenyl)-1H-pyrazolo[3,4-d]pyrimidin-1-yl)ethyl)-N-methylacrylamide], for which the negative logarithm of the IC50 (pIC50) (read-out: BTK IC50) is 7.77. As to `C=CC(=O)N[C@H]1CC[C@@H](n2nc(-c3ccc(Oc4c(F)c(F)cc(F)c4F)cc3F)c3c(N)ncnc32)C1` [Compound 26, N-((1s,3r)-3-(4-amino-3-(2-fluoro-4-(2,3,5,6-tetrafluorophenoxy)phenyl)-1H-pyrazolo[3,4-d]pyrimidin-1-yl)cyclopentyl)acrylamide], where the note is “read-out: BTK IC50”, the pIC50 is 7.47.

For the molecule `C=CC(=O)N1CCCC(n2nc(-c3ccc(Oc4c(F)ccc(F)c4F)cc3F)c3c(N)ncnc32)C1` (stereo not shown) [Compound 21, 1-(3-(4-amino-3-(2-fluoro-4-(2,3,6-trifluorophenoxy)phenyl)-1H-pyrazolo[3,4-d]pyrimidin-1-yl)piperidin-1-yl)prop-2-en-1-one], the pIC50 is over 8.00 under setting [1] and 8.30 (read-out: BTK IC50).

In the case of `C=CC(=O)N1CCC(Cn2nc(-c3ccc(Oc4c(F)c(F)cc(F)c4F)cc3F)c3c(N)ncnc32)CC1` [Compound 30, 1-(4-((4-amino-3-(2-fluoro-4-(2,3,5,6-tetrafluorophenoxy)phenyl)-1H-pyrazolo[3,4-d]pyrimidin-1-yl)methyl)piperidin-1-yl)prop-2-en-1-one], the negative-log IC50 (pIC50) (read-out: BTK IC50) was 7.62. On to `C=CC(=O)N1CCCC(n2nc(-c3ccc(Oc4cccc(F)c4)cc3F)c3c(N)ncnc32)C1` (stereo not shown) [Compound 18, 1-(3-(4-amino-3-(2-fluoro-4-(3-fluorophenoxy)phenyl)-1H-pyrazolo[3,4-d]pyrimidin-1-yl)piperidin-1-yl)prop-2-en-1-one], for which the negative-log IC50 (pIC50) under setting [1] is over 8.00 and the pIC50 (read-out: BTK IC50) is 8.52. As to `Nc1ncnc2c1c(-c1ccc(Oc3c(F)c(F)cc(F)c3F)cc1F)nn2C1CCCN(C(=O)C(=O)C2CC2)C1` (stereo not shown) [Compound 81, 1-(3-(4-amino-3-(2-fluoro-4-(2,3,5,6-tetrafluorophenoxy)phenyl)-1H-pyrazolo[3,4-d]pyrimidin-1-yl)piperidin-1-yl)-2-cyclopropylethane-1,2-dione], under “read-out: BTK IC50”, the pIC50 is 5.65. For `C=CC(=O)N1CCC(Cn2nc(-c3ccc(Oc4c(F)c(F)cc(F)c4F)cc3F)c3c(N)ncnc32)C1` (stereo not shown) [Compound 29, 1-(3-((4-amino-3-(2-fluoro-4-(2,3,5,6-tetrafluorophenoxy)phenyl)-1H-pyrazolo[3,4-d]pyrimidin-1-yl)methyl)pyrrolidin-1-yl)prop-2-en-1-one], where the note is “read-out: BTK IC50”, the negative-log IC50 (pIC50) is 7.59. In the case of `C=CC(=O)N1CCCC(n2nc(-c3ccc(Oc4cccc(NS(C)(=O)=O)c4)cc3F)c3c(N)ncnc32)C1` (stereo not shown) [Compound 20, N-(3-(4-(1-(1-acryloylpiperidin-3-yl)-4-amino-1H-pyrazolo[3,4-d]pyrimidin-3-yl)-3-fluorophenoxy)phenyl)methanesulfonamide], the pIC50 by setting is: under setting [1], over 8.00; (read-out: BTK IC50) 8.40.

In the case of `Nc1ncnc2c1c(-c1ccc(Oc3c(F)c(F)cc(F)c3F)cc1F)nn2[C@@H]1CCN(C(=O)CF)C1` [Compound 111, 1-((R)-3-(4-amino-3-(2-fluoro-4-(2,3,5,6-tetrafluorophenoxy)phenyl)-1H-pyrazolo[3,4-d]pyrimidin-1-yl)pyrrolidin-1-yl)-2-fluoroethanone], the negative-log IC50 (pIC50) (read-out: BTK IC50) was 7.37. For the molecule `N#C/C=C\C(=O)N1CC[C@@H](n2nc(-c3ccc(Oc4c(F)c(F)cc(F)c4F)cc3F)c3c(N)ncnc32)C1` [Compound 98, (Z)-4-((R)-3-(4-amino-3-(2-fluoro-4-(2,3,5,6-tetrafluorophenoxy)phenyl)-1H-pyrazolo[3,4-d]pyrimidin-1-yl)pyrrolidin-1-yl)-4-oxobut-2-enenitrile], the pIC50 is over 8.00 under setting [1] and 8.70 (read-out: BTK IC50). On to `CN/C(=N\C#N)N1CCCC(n2nc(-c3ccc(Oc4c(F)c(F)cc(F)c4F)cc3F)c3c(N)ncnc32)C1` (stereo not shown) [Compound 54, 3-[4-amino-3-[2-fluoro-4-(2,3,5,6-fluorophenoxy)phenyl]-1H-pyrazolo[3,4-d]pyrimidine-1-yl]-N′-cyano-N-methyl-piperidine-1-carboxamidine], for which the negative logarithm of the IC50 (pIC50) (read-out: BTK IC50) was 5.79. The same measure, in the same setting: for `Nc1ncnc2c1c(-c1ccc(Oc3c(F)c(F)cc(F)c3F)cc1F)nn2[C@@H]1CCN(C(=O)C(=O)C(F)(F)F)C1` [Compound 77, 1-((R)-3-(4-amino-3-(2-fluoro-4-(2,3,5,6-tetrafluorophenoxy)phenyl)-1H-pyrazolo[3,4-d]pyrimidin-1-yl)pyrrolidin-1-yl)-3,3,3-trifluoropropane-1,2-dione] the value was 6.70. Same read-out and setting: for `C=CC(=O)N1CC[C@@H](n2nc(-c3ccc(Oc4ccnc5ccccc45)cc3F)c3c(N)ncnc32)C1` [Compound 90, 1-((R)-3-(4-amino-3-(2-fluoro-4-(quinolin-4-yloxy)phenyl)-1H-pyrazolo[3,4-d]pyrimidin-1-yl)pyrrolidin-1-yl)prop-2-en-1-one] the value was 7.82. Still for that read-out and setting: for `Nc1ncnc2c1c(-c1ccc(Oc3c(F)c(F)cc(F)c3F)cc1F)nn2[C@@H]1CCN(C(=O)C(=O)O)C1` [Compound 117, 2-((R)-3-(4-amino-3-(2-fluoro-4-(2,3,5,6-tetrafluorophenoxy)phenyl)-1H-pyrazolo[3,4-d]pyrimidin-1-yl)pyrrolidin-1-yl)-2-oxoacetic acid] the value was 6.15.

The values are drawn from US9532990B2 (Zhejiang DTRM Biopharma Co. Ltd., priority 2014, dated 2017).
